Laboratory results as given in ChEMBL document CHEMBL4229568, “Discovery of natural flavonoids as activators of Nrf2-mediated defense system: Structure-activity relationship and inhibition of intracellular oxidative insults” (Bioorg Med Chem, 2018).
The source made the active and inactive calls.

Experiments:
[1] = target: T1, Nuclear factor erythroid 2-related factor 2 (Homo sapiens) (UniProt Q16236); assay: Activation of Nrf2 in human BEAS2B cells assessed as upregulation of NQO1 protein expression at 6.25 uM pretreated for 1 hr followed by co-treatment with PKC inhibitor Go6983 for 18 hrs by immunoblot analysis; type: cell-based
T1 sequence (whole entry): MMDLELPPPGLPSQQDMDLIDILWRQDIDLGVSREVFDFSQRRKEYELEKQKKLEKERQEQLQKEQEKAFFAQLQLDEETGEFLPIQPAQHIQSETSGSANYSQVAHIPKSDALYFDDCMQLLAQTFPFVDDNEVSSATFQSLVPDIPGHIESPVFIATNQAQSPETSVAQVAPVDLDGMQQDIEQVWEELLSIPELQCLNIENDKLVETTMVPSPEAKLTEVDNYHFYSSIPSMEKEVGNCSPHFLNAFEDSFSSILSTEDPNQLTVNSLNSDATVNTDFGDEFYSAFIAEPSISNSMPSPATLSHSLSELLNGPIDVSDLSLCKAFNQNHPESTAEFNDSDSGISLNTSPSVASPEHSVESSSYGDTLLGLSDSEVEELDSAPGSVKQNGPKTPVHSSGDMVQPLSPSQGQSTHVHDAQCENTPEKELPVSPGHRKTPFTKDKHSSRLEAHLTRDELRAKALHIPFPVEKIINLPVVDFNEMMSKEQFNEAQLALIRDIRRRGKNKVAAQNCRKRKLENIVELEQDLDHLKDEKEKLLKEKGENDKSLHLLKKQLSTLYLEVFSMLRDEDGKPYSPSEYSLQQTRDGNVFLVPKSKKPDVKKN

[2] = target: T1, Nuclear factor erythroid 2-related factor 2 (Homo sapiens); assay: Inhibition of Nrf2 (unknown origin) ubiquitylation transfected in human BEAS2B cells at 6.25 uM after 6 hrs by immunoblot analysis; type: cell-based
[3] = system: BEAS-2B; assay: Effect on Keap1 protein levels in human BEAS2B cells at <= 20 uM after 18 hrs by immunoblot analysis; type: functional, cell-based
[4] = system: BEAS-2B; assay: Downregulation of Keap1 protein levels in human BEAS2B cells at 50 to 100 uM after 18 hrs by immunoblot analysis; type: functional, cell-based
[5] = target: T1, Nuclear factor erythroid 2-related factor 2 (Homo sapiens); assay: Activation of Nrf2 in human BEAS2B cells assessed as upregulation of Nrf2 protein expression at 6.25 uM pretreated for 1 hr followed by co-treatment with PKC inhibitor Ro-31-8220 for 18 hrs by immunoblot analysis; type: cell-based
[6] = target: T1, Nuclear factor erythroid 2-related factor 2 (Homo sapiens); assay: Activation of Nrf2 in human BEAS2B cells assessed as upregulation of Nrf2 protein expression at 50 to 100 uM after 18 hrs by immunoblot analysis; type: cell-based
[7] = target: T1, Nuclear factor erythroid 2-related factor 2 (Homo sapiens); assay: Activation of Nrf2 in human BEAS2B cells assessed as upregulation of NQO1 protein expression at 3.12 to 25 uM after 12 hrs by immunoblot analysis; type: cell-based
[8] = target: T1, Nuclear factor erythroid 2-related factor 2 (Homo sapiens); assay: Activation of Nrf2 in human BEAS2B cells assessed as upregulation of Nrf2 protein expression at 6.25 uM pretreated for 1 hr followed by co-treatment with PERK inhibitor GSK2606414 for 18 hrs by immunoblot analysis; type: cell-based
[9] = target: T1, Nuclear factor erythroid 2-related factor 2 (Homo sapiens); assay: Activation of Nrf2 in human MDA-MB-231 cells assessed as upregulation of NQO1 protein expression after 16 hrs by immunoblot analysis; type: cell-based
[10] = target: T1, Nuclear factor erythroid 2-related factor 2 (Homo sapiens); assay: Activation of Nrf2 in human BEAS2B cells assessed as upregulation of Nrf2 protein expression at 6.25 uM pretreated for 1 hr followed by co-treatment with PI3K inhibitor LY294002 for 18 hrs by immunoblot analysis; type: cell-based
[11] = system: BEAS-2B; assay: Cytoprotective activity in human BEAS2B cells assessed as decrease in As(+3)-induced cell death at 3.12 to 25 uM preincubated for 8 hrs followed by As(+3) challenge and measured after 24 hrs by MTT assay; type: functional, cell-based
[12] = target: T1, Nuclear factor erythroid 2-related factor 2 (Homo sapiens); assay: Activation of Nrf2 in human BEAS2B cells assessed as upregulation of GSH levels after 24 hrs; type: cell-based
[13] = target: T2, Nuclear factor erythroid 2-related factor 2 (Mus musculus) (UniProt Q60795); assay: Activation of Nrf2 in mouse Heap1c1c7 cells assessed as induction of NAD(P)H:quinone reductase activity at 6.25 uM pretreated for 1 hr followed by co-treatment with p38 MAPK inhibitor SB203580 for 24 hrs; type: cell-based
T2 sequence (whole entry): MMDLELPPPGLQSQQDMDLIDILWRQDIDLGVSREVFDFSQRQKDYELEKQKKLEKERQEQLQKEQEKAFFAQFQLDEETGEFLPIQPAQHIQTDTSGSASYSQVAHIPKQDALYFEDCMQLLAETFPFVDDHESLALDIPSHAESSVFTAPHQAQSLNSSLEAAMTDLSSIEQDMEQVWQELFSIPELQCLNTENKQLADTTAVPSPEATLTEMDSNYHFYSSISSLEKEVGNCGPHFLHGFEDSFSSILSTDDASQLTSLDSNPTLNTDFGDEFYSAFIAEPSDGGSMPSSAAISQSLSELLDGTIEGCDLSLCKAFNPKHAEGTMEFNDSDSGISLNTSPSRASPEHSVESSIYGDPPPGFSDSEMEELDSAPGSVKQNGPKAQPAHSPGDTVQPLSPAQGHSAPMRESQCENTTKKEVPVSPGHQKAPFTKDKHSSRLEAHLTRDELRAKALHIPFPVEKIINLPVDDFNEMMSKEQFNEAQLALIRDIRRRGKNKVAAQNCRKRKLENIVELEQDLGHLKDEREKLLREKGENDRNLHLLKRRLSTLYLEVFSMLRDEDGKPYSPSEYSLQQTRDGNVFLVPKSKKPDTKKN

[14] = system: BEAS-2B; assay: Effect on reactive oxygen species production in human BEAS2B cells at 6.25 uM treated for 8 hrs; type: ADME, cell-based
[15] = target: T2, Nuclear factor erythroid 2-related factor 2 (Mus musculus); assay: Activation of Nrf2 in mouse Heap1c1c7 cells assessed as induction of NAD(P)H:quinone reductase activity at 6.25 uM pretreated for 1 hr followed by co-treatment with MEK1/2 inhibitor PD98059 for 24 hrs; type: cell-based
[16] = target: T2, Nuclear factor erythroid 2-related factor 2 (Mus musculus); assay: Activation of Nrf2 in mouse Heap1c1c7 cells assessed as induction of NAD(P)H:quinone reductase activity at 6.25 uM pretreated for 1 hr followed by co-treatment with PERK inhibitor GSK2606414 for 24 hrs; type: cell-based
[17] = target: T1, Nuclear factor erythroid 2-related factor 2 (Homo sapiens); assay: Induction of Nrf2 translocation from cytoplasm to nucleus in human BEAS2B cells at 6.25 uM after 18 hrs by immunoblot analysis; type: cell-based
[18] = target: T1, Nuclear factor erythroid 2-related factor 2 (Homo sapiens); assay: Activation of Nrf2 in human BEAS2B cells assessed as upregulation of GSH levels at 5 uM measured over 1 to 24 hrs; type: cell-based
[19] = target: T1, Nuclear factor erythroid 2-related factor 2 (Homo sapiens); assay: Induction of Nrf2 translocation from cytoplasm to nucleus in human BEAS2B cells at 6.25 uM after 18 hrs by DAPI staining-based immunofluorescence analysis; type: cell-based
[20] = target: T2, Nuclear factor erythroid 2-related factor 2 (Mus musculus); assay: Activation of Nrf2 in mouse Heap1c1c7 cells assessed as induction of NAD(P)H:quinone reductase activity at 6.25 uM pretreated for 1 hr followed by co-treatment with PKC inhibitor Ro-31-8220 for 24 hrs; type: cell-based
[21] = target: T1, Nuclear factor erythroid 2-related factor 2 (Homo sapiens); assay: Activation of Nrf2 in human BEAS2B cells assessed as upregulation of gamma-GCS protein expression at 6.25 uM after 48 hrs by immunoblot analysis; type: cell-based

COc1ccc(-c2coc3cc(OC)cc(O)c3c2=O)cc1 [4',7-DIMETHOXY-5-HYDROXYGENISTEIN]
active: inhibition [2] | Activity [4] | Activity [7] | Activity [9] Dose-dependent effect | Activity [11] | Activity [12] Dose-dependent effect | Activity [17] | Activity [18] | Activity [19]
Non-Toxic: Activity [14]
inactive: Activity [1] | Activity [3] | Activity [5] | Activity [6] | Activity [8] | Activity [10] | Activity [13] | Activity [15] | Activity [16] | Activity [20] | Activity [21]
